Measured values published in ChEMBL document CHEMBL2157955, “Design, synthesis and anticancer activity of 1-acyl-3-amino-1,4,5,6-tetrahydropyrrolo[3,4-c]pyrazole derivatives” (Bioorg Med Chem Lett, 2012).
Values belong to the compound of their own block, whether it stands above or below them.

Legend:
HCT-116 [1] = experiment: Cytotoxicity against human HCT116 cells after 48 hrs by SRB assay; format: functional, cell-based; conditions: HCT-116, 48 h
HT-29 [2] = experiment: Cytotoxicity against human HT-29 cells after 48 hrs by SRB assay; format: functional, cell-based; conditions: HT-29, 48 h
MCF7 [3] = experiment: Cytotoxicity against human MCF7 cells after 48 hrs by SRB assay; format: functional, cell-based; conditions: MCF7, 48 h
HepG2 [4] = experiment: Cytotoxicity against human HepG2 cells after 48 hrs by SRB assay; format: functional, cell-based; conditions: HepG2, 48 h
A549 [5] = experiment: Cytotoxicity against human A549 cells after 48 hrs by SRB assay; format: functional, cell-based; conditions: A549, 48 h
HT-1080 [6] = experiment: Cytotoxicity against human HT1080 cells after 48 hrs by SRB assay; format: functional, cell-based; conditions: HT-1080, 48 h
[7] = Cytotoxicity against human L02 cells after 48 hrs by SRB assay; format: cell-based; conditions: L02, 48 h
HT-1080 [8] = experiment: Ratio of (R)-roscovitine IC50 to compound IC50 for human HT1080 cells; format: functional
HepG2 [9] = experiment: Ratio of (R)-roscovitine IC50 to compound IC50 for human HepG2 cells; format: functional
HCT-116 [10] = experiment: Ratio of (R)-roscovitine IC50 to compound IC50 for human HCT116 cells; format: functional
HT-29 [11] = experiment: Ratio of (R)-roscovitine IC50 to compound IC50 for human HT-29 cells; format: functional
MCF7 [12] = experiment: Ratio of (R)-roscovitine IC50 to compound IC50 for human MCF7 cells; format: functional
A549 [13] = experiment: Ratio of (R)-roscovitine IC50 to compound IC50 for human A549 cells; format: functional
[14] = target: Cyclin-dependent kinase 1/cyclin B1 (Homo sapiens) (UniProt P06493+P14635); experiment: Inhibition of human CDK1/cyclinB at 10 uM; format: protein-complex assay
Chain of Cyclin-dependent kinase 1/cyclin B1 (Homo sapiens) (P06493 whole entry, looked up): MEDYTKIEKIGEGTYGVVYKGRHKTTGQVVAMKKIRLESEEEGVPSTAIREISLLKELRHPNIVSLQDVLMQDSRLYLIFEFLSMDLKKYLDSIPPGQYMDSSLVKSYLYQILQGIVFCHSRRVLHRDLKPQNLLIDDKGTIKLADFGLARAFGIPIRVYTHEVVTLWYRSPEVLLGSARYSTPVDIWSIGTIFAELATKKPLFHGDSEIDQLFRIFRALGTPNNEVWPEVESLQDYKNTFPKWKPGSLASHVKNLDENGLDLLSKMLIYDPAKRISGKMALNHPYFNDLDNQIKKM
Chain of Cyclin-dependent kinase 1/cyclin B1 (Homo sapiens) (P14635 whole entry, looked up): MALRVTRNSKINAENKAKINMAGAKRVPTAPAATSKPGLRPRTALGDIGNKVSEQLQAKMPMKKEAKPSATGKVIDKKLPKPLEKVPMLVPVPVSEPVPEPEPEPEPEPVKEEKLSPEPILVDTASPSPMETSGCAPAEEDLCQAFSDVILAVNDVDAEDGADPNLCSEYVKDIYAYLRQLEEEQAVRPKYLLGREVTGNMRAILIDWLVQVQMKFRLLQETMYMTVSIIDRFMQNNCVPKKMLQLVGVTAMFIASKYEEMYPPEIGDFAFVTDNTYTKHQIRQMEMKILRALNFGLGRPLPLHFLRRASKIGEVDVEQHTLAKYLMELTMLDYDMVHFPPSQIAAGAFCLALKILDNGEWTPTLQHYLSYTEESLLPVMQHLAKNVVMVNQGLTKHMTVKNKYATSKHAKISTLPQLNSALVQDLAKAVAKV

[15] = target: Cyclin-dependent kinase 2/cyclin A (Homo sapiens) (UniProt P24941+P20248+P78396); experiment: Inhibition of human CDK2/cyclin A at 10 uM; format: protein-complex assay
[16] = target: Cyclin-dependent kinase 2/cyclin E (Homo sapiens) (UniProt P24864+P24941+O96020); experiment: Inhibition of human CDK2/cyclin E at 10 uM; format: protein-complex assay
[17] = target: Cyclin-dependent kinase 5/CDK5 activator 1 (Homo sapiens) (UniProt Q00535+Q15078); experiment: Inhibition of human CDK5/p25 at 10 uM; format: protein-complex assay
Chain of Cyclin-dependent kinase 5/CDK5 activator 1 (Homo sapiens) (Q00535 whole entry): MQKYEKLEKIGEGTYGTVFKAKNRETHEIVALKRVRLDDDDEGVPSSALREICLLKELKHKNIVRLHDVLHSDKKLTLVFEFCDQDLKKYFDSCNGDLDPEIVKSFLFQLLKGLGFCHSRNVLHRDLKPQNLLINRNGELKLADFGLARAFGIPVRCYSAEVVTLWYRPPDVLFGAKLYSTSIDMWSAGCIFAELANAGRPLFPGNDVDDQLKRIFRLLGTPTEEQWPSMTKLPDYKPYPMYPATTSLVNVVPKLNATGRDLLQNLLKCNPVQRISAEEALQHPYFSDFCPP
Chain of Cyclin-dependent kinase 5/CDK5 activator 1 (Homo sapiens) (Q15078 99-307 partner limits assumed): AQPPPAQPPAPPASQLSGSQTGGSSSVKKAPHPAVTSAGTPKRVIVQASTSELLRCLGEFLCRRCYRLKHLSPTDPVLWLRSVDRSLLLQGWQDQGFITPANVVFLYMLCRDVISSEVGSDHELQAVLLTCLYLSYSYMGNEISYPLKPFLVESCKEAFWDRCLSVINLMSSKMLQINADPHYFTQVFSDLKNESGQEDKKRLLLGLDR

[18] = target: Cyclin-dependent kinase 7/ cyclin H (Homo sapiens) (UniProt P51946+P50613); experiment: Inhibition of human CDK7/CyclinH/MAT1 at 10 uM; format: protein-complex assay
[19] = target: CDK9/cyclin T1 (Homo sapiens) (UniProt O60563+P50750); experiment: Inhibition of human CDK9/CyclinT1 at 10 uM; format: protein-complex assay
[20] = target: Epidermal growth factor receptor (Homo sapiens) (UniProt P00533); experiment: Inhibition of human EGFR at 10 uM
Chain of Epidermal growth factor receptor (Homo sapiens) (P00533 whole entry): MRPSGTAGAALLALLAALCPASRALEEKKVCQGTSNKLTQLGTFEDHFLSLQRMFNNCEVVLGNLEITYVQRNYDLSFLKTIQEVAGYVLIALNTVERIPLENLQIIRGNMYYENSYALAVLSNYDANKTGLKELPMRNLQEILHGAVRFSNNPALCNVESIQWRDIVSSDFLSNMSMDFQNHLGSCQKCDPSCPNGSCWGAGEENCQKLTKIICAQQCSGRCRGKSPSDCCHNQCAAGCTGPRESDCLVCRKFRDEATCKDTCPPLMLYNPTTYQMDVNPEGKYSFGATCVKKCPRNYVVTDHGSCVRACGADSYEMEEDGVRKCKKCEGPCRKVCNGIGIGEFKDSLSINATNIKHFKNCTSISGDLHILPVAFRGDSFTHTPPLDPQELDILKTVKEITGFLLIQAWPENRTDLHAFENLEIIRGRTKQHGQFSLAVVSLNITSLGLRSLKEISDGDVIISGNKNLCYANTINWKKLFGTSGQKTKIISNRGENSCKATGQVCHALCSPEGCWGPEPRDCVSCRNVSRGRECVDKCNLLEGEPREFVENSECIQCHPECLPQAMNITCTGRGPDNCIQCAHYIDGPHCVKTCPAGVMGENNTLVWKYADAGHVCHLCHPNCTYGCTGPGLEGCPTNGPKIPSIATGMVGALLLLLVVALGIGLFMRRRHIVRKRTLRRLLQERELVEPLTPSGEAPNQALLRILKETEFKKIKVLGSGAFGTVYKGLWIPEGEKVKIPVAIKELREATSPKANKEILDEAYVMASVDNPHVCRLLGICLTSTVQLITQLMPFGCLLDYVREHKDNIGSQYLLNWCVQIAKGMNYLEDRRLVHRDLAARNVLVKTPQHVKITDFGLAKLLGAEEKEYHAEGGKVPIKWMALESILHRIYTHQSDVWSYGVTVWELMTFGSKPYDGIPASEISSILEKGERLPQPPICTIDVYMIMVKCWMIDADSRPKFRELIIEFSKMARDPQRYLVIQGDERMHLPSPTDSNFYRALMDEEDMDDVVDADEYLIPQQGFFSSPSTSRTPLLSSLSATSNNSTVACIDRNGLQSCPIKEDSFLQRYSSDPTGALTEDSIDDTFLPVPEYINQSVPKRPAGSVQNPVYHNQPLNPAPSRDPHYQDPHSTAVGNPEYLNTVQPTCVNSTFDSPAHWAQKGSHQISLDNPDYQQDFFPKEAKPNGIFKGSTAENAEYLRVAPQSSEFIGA

[21] = target: Glycogen synthase kinase-3 beta (Homo sapiens) (UniProt P49841); experiment: Inhibition of human GSK3beta at 10 uM
Chain of Glycogen synthase kinase-3 beta (Homo sapiens) (P49841 whole entry, looked up): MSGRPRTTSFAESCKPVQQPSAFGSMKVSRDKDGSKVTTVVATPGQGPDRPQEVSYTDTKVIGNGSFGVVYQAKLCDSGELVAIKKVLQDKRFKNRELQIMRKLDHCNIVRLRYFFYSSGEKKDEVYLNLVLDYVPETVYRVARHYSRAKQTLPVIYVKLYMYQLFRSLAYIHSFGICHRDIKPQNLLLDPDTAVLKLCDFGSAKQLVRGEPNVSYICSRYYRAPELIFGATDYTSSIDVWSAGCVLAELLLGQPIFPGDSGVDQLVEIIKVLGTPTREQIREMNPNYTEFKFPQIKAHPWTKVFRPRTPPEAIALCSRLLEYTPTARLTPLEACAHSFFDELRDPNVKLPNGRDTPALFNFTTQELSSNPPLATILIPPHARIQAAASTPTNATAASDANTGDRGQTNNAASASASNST

[22] = target: T1, Aurora kinase A (Homo sapiens) (UniProt O14965); experiment: Inhibition of human Aurora A kinase at 10 uM
T1 sequence (whole entry): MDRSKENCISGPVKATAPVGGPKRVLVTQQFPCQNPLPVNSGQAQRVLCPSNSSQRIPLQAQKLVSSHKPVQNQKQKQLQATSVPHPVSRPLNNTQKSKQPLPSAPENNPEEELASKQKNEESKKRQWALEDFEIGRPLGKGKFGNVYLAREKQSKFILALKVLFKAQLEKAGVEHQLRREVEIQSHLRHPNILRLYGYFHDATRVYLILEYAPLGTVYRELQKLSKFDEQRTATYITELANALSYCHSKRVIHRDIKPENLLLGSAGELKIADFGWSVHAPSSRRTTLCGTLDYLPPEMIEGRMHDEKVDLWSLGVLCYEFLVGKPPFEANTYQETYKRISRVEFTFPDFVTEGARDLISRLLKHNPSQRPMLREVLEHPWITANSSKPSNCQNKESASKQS

[23] = target: Aurora kinase B (Homo sapiens) (UniProt Q96GD4); experiment: Inhibition of human Aurora B kinase at 10 uM
Chain of Aurora kinase B (Homo sapiens) (Q96GD4 whole entry): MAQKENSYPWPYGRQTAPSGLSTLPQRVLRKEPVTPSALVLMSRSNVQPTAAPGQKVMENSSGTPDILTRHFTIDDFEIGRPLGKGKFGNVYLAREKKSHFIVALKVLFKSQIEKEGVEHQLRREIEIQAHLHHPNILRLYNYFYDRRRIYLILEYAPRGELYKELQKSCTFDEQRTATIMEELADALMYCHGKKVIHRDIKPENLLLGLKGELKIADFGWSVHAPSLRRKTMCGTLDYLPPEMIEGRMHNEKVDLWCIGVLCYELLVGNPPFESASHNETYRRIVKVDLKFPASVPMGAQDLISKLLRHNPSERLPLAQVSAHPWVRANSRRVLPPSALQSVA

[24] = target: Serine/threonine-protein kinase mTOR (Homo sapiens) (UniProt P42345); experiment: Inhibition of human mTOR at 10 uM

SMILES: O=C(Nc1n[nH]c2c1CN(C(=O)c1ccccc1)C2)c1ccccc1
IC50 (HCT-116 [1]): 6.4 µM

SMILES: CCCCNC(=O)N1Cc2c(NC(=O)c3ccc(OC)cc3)nn(C(=O)c3ccccc3)c2C1
IC50 (HCT-116 [1]): 25.3 µM

SMILES: CC(=O)n1nc(NC(=O)c2ccccc2)c2c1CN(C(=O)N(C)C)C2
IC50 (HCT-116 [1]): 70.3 µM

SMILES: CC(=O)n1nc(NC(=O)c2ccccc2)c2c1CN(C(=O)C1CCC(C)CC1)C2 (stereo not drawn)
IC50 (HCT-116 [1]): 12.2 µM

SMILES: CC[C@H](CO)Nc1nc(NCc2ccccc2)c2ncn(C(C)C)c2n1 [SELICICLIB]
IC50 (HCT-116 [1]): 16.4 µM
IC50 (HT-29 [2]): 11.6 µM
IC50 (MCF7 [3]): 12.2 µM
IC50 (HepG2 [4]): 15.5 µM
IC50 (A549 [5]): 14.1 µM
IC50 (HT-1080 [6]): 9.62 µM
IC50 [7]: 20.5 µM

SMILES: CCCCNC(=O)N1Cc2c(NC(=O)c3ccc(F)cc3)nn(C(=O)C3CC3)c2C1
IC50 (HCT-116 [1]): 23.2 µM

SMILES: CCCCNC(=O)N1Cc2c(NC(=O)c3ccc(OC)cc3)nn(C(=O)C3CC3)c2C1
IC50 (HCT-116 [1]): 65.5 µM

SMILES: COc1ccc(C(=O)Nc2n[nH]c3c2CN(C(=O)c2ccccc2)C3)cc1
IC50 (HCT-116 [1]): 13.6 µM

SMILES: COc1ccc(C(=O)Nc2nn(C(=O)c3ccccc3)c3c2CN(C(=O)c2ccccc2)C3)cc1
IC50 (HCT-116 [1]): 31.3 µM

SMILES: CC(=O)n1nc(NC(=O)c2ccccc2)c2c1CN(C(=O)c1cccc(F)c1)C2
IC50 (HCT-116 [1]): 21.9 µM

SMILES: O=C(Nc1nn(C(=O)C2CC2)c2c1CN(C(=O)c1ccccc1)C2)c1ccc(F)cc1
IC50 (HCT-116 [1]): 2.28 µM

SMILES: CCC(=O)n1nc(NC(=O)c2ccccc2)c2c1CN(C(=O)c1ccccc1)C2
IC50 (HCT-116 [1]): 1.06 µM
IC50 (HT-29 [2]): 0.91 µM
IC50 (MCF7 [3]): 1.07 µM
IC50 (HepG2 [4]): 0.86 µM
IC50 [7]: 2.47 µM

SMILES: CC(=O)n1nc(NC(=O)c2ccccc2)c2c1CN(S(=O)(=O)N(C)C)C2
IC50 (HCT-116 [1]): 35.3 µM

SMILES: O=C(Nc1nn(C(=O)Cc2ccccc2)c2c1CN(C(=O)c1ccccc1)C2)c1ccccc1
IC50 (HCT-116 [1]): 2.61 µM

SMILES: CC(=O)n1nc(NC(=O)c2ccccc2)c2c1CN(C(=O)c1cccc([N+](=O)[O-])c1)C2
IC50 (HCT-116 [1]): 17.3 µM

SMILES: CC(=O)n1nc(NC(=O)c2ccccc2)c2c1CN(C(=O)c1ccncc1)C2
IC50 (HCT-116 [1]): 10 µM

SMILES: CCCCNC(=O)N1Cc2c(NC(=O)Cc3ccccc3)nn(C(=O)C3CC3)c2C1
IC50 (HCT-116 [1]): 31.2 µM

SMILES: CCCCNC(=O)N1Cc2c(NC(=O)c3ccc(C)cc3)nn(C(=O)c3ccccc3)c2C1
IC50 (HCT-116 [1]): 23.2 µM

SMILES: CCCCNC(=O)N1Cc2c(NC(=O)c3ccc(F)cc3)nn(C(=O)c3ccccc3)c2C1
IC50 (HCT-116 [1]): 30.8 µM

SMILES: O=C(Nc1nn(C(=O)c2ccccc2)c2c1CN(C(=O)c1ccccc1)C2)c1ccc(F)cc1
IC50 (HCT-116 [1]): 2.78 µM

SMILES: O=C(Nc1nn(C(=O)C2CC2)c2c1CN(C(=O)c1ccccc1)C2)c1ccccc1
IC50 (HCT-116 [1]): 1.24 µM

SMILES: CC(=O)n1nc(NC(=O)c2ccccc2)c2c1CN(C(=O)c1ccc(-c3ccccc3)cc1)C2
IC50 (HCT-116 [1]): > 90 µM

SMILES: CC(=O)n1nc(NC(=O)c2ccccc2)c2c1CN(C(=O)CCl)C2
IC50 (HCT-116 [1]): 4.1 µM

SMILES: CC(=O)n1nc(NC(=O)c2ccccc2)c2c1CN(S(=O)(=O)c1ccc([N+](=O)[O-])cc1)C2
IC50 (HCT-116 [1]): 22.3 µM

inhibition [14]: 30%
inhibition [15]: 17%
inhibition [16]: 30%
inhibition [17]: 72%
inhibition [18]: 5%
inhibition [19]: 10%
inhibition [20]: 8%
inhibition [21]: 67%
inhibition [22]: 33%
inhibition [23]: 32%
inhibition [24]: 3%
SMILES: CC(=O)n1nc(NC(=O)c2ccccc2)c2c1CN(C(=O)c1ccccc1)C2
IC50 (HCT-116 [1]): 0.58 µM
IC50 (HT-29 [2]): 0.92 µM
IC50 (MCF7 [3]): 0.99 µM
IC50 (HepG2 [4]): 0.81 µM
IC50 (A549 [5]): 1.74 µM
IC50 (HT-1080 [6]): 2.13 µM
IC50 [7]: 2.22 µM
Ratio IC50 (HT-1080 [8]): 4
Ratio IC50 (HepG2 [9]): 4
Ratio IC50 (HCT-116 [10]): 28
Ratio IC50 (HT-29 [11]): 4
Ratio IC50 (MCF7 [12]): 4
Ratio IC50 (A549 [13]): 4

SMILES: CC(C)C(=O)n1nc(NC(=O)c2ccccc2)c2c1CN(C(=O)c1ccccc1)C2
IC50 (HCT-116 [1]): 2.02 µM

SMILES: CC(=O)n1nc(NC(=O)c2ccccc2)c2c1CN(C(=O)c1ccc([N+](=O)[O-])cc1)C2
IC50 (HCT-116 [1]): 16.2 µM

SMILES: O=C(Nc1n[nH]c2c1CN(C(=O)c1ccccc1)C2)c1ccc(F)cc1
IC50 (HCT-116 [1]): 3.19 µM

SMILES: CCCCNC(=O)N1Cc2c(NC(=O)Cc3ccccc3)nn(C(=O)c3ccccc3)c2C1
IC50 (HCT-116 [1]): 43.1 µM

SMILES: CC(=O)n1nc(NC(=O)c2ccccc2)c2c1CN(C(=O)c1cccc(Cl)c1)C2
IC50 (HCT-116 [1]): 17.4 µM

SMILES: CCCCNC(=O)N1Cc2c(NC(=O)c3ccc(C)cc3)nn(C(=O)C3CC3)c2C1
IC50 (HCT-116 [1]): 17.6 µM

SMILES: CCCCNC(=O)N1Cc2c(NC(=O)c3ccccc3)nn(C(=O)c3ccccc3)c2C1
IC50 (HCT-116 [1]): 7.47 µM

SMILES: CCCCNC(=O)N1Cc2c(NC(=O)c3ccccc3)nn(C(=O)C3CC3)c2C1
IC50 (HCT-116 [1]): 3.47 µM

SMILES: O=C(Nc1nn(C(=O)c2ccccc2)c2c1CN(C(=O)c1ccccc1)C2)c1ccccc1
IC50 (HCT-116 [1]): 1.4 µM

SMILES: COc1ccc(C(=O)Nc2nn(C(=O)C3CC3)c3c2CN(C(=O)c2ccccc2)C3)cc1
IC50 (HCT-116 [1]): 5.18 µM
